Experimental findings from patent US11390604B2 (Hoffmann-La Roche Inc., priority 2019, dated 2022) are described below.

Where a name gives a salt, the structure may show the parent alone.

The first test relates to Acinetobacter baumannii ATCC 17961. As to the kind of experiment: Antimicrobial susceptibility testing: 90% growth inhibitory concentration (IC90) determination. As to conditions: ATCC17961, Acinetobacter baumannii ATCC 17961, Iso-Sensitest broth, read-out: ATCC 17961 IC90. The class given is cell-based. Put shortly: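 Broth microdilution in Iso-Sensitest medium, twofold series (e.g. 50 to 0.097 μM final), ~5×10^5 CFU/ml inoculum, 35±2 °C. OD600 read every 20 min over 16 h. IC90 derived from growth inhibition during logarithmic phase.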
Regarding `C#CCn1cc(-c2cnc(C(=O)Nc3ccc(C(=O)NC)c(Cl)c3)n2C)c(C(F)(F)F)n1` [Example 43, N-(3-chloro-4-(methylcarbamoyl)phenyl)-1-methyl-5-(1-(prop-2-yn-1-yl)-3-(trifluoromethyl)-1H-pyrazol-4-yl)-1H-imidazole-2-carboxamide], the IC90 came out at 478 nM. `C#CCn1cc(-c2cnc(C(=O)Nc3ccc(C(=O)NCCCN)c(Cl)c3)n2C)c(C(F)(F)F)n1` [Example 44, N-(4-((3-aminopropyl)carbamoyl)-3-chlorophenyl)-1-methyl-5-(1-(prop-2-yn-1-yl)-3-(trifluoromethyl)-1H-pyrazol-4-yl)-1H-imidazole-2-carboxamide 2,2,2-trifluoroacetate]: the IC90 turned out to be 556 nM.

For the compound `C#CCn1cc(-c2cnc(C(=O)Nc3ccc(C(=O)NCCOC[C@@H](C)N)c(Cl)c3)n2C)c(C(F)(F)F)n1` [Example 45, (R)-N-(4-((2-(2-aminopropoxy)ethyl)carbamoyl)-3-chlorophenyl)-1-methyl-5-(1-(prop-2-yn-1-yl)-3-(trifluoromethyl)-1H-pyrazol-4-yl)-1H-imidazole-2-carboxamide 2,2,2-trifluoroacetate], the IC90 was found to be 262 nM. The same measure, in the same setting: the result for `C#CCn1cc(-c2cnc(C(=O)Nc3ccc(C(=O)NCCOCC(C)(C)N)c(Cl)c3)n2C)c(C(F)(F)F)n1` [Example 46, N-(4-((2-(2-amino-2-methylpropoxy)ethyl)carbamoyl)-3-chlorophenyl)-1-methyl-5-(1-(prop-2-yn-1-yl)-3-(trifluoromethyl)-1H-pyrazol-4-yl)-1H-imidazole-2-carboxamide 2,2,2-trifluoroacetate] reads 263 nM. Still for that read-out and setting: then `C#CCn1cc(-c2cnc(C(=O)Nc3ccc(C(=O)NCCOC[C@H](C)N)c(Cl)c3)n2C)c(C(F)(F)F)n1` [Example 47, (S)-N-(4-((2-(2-aminopropoxy)ethyl)carbamoyl)-3-chlorophenyl)-1-methyl-5-(1-(prop-2-yn-1-yl)-3-(trifluoromethyl)-1H-pyrazol-4-yl)-1H-imidazole-2-carboxamide 2,2,2-trifluoroacetate], with 428 nM; and `C#CCn1cc(-c2cnc(C(=O)Nc3ccc(C(=O)NCCOCCN)c(Cl)c3)n2C)c(C(F)(F)F)n1` [Example 48, N-(4-((2-(2-aminoethoxy)ethyl)carbamoyl)-3-chlorophenyl)-1-methyl-5-(1-(prop-2-yn-1-yl)-3-(trifluoromethyl)-1H-pyrazol-4-yl)-1H-imidazole-2-carboxamide trifluoroacetate], with 231 nM. Same read-out and setting: the result for `Cc1cc(NC(=O)c2ncc(-c3c[nH]nc3C(F)(F)F)n2C)ccc1C(=O)NCCCCCCN` [Example 49, N-(4-((6-aminohexyl)carbamoyl)-3-methylphenyl)-1-methyl-5-(3-(trifluoromethyl)-1H-pyrazol-4-yl)-1H-imidazole-2-carboxamide hydrochloride] reads 2830 nM; that for `Cc1cc(NC(=O)c2ncc(-c3c[nH]nc3C(F)(F)F)n2C)ccc1C(=O)NCCCCCN` [Example 50, N-(4-((5-aminopentyl)carbamoyl)-3-methylphenyl)-1-methyl-5-(3-(trifluoromethyl)-1H-pyrazol-4-yl)-1H-imidazole-2-carboxamide hydrochloride], 4680 nM; that for `C#CCn1cc(-c2cnc(C(=O)Nc3ccc(C(=O)N4CCN(C(=O)NC5CNC5)CC4)c(Cl)c3)n2C)c(C(F)(F)F)n1` [Example 51, N-(Azetidin-3-yl)-4-(2-chloro-4-(1-methyl-5-(1-(prop-2-yn-1-yl)-3-(trifluoromethyl)-1H-pyrazol-4-yl)-1H-imidazole-2-carboxamido)benzoyl)piperazine-1-carboxamide Hydrochloride], 122 nM. Take `C#CCn1cc(-c2cnc(C(=O)Nc3ccc(C(=O)N4CCN(C(=O)NCC5(O)CNC5)CC4)c(Cl)c3)n2C)c(C(F)(F)F)n1` [Example 52, 4-(2-chloro-4-(1-methyl-5-(1-(prop-2-yn-1-yl)-3-(trifluoromethyl)-1H-pyrazol-4-yl)-1H-imidazole-2-carboxamido)benzoyl)-N-((3-hydroxyazetidin-3-yl)methyl)piperazine-1-carboxamide hydrochloride]: the IC90 was 192 nM. The same measure, in the same setting: then `C#CCn1cc(-c2cnc(C(=O)Nc3ccc(C(=O)N4CCN(C(=O)N[C@H]5CCNC5)CC4)c(Cl)c3)n2C)c(C(F)(F)F)n1` [Example 53, (S)-4-(2-chloro-4-(1-methyl-5-[1-(prop-2-yn-1-yl)-3-(trifluoromethyl)-1H-pyrazol-4-yl)-1H-imidazole-2-carboxamido)benzoyl)-N-(pyrrolidin-3-yl)piperazine-1-carboxamide hydrochloride], with 161 nM; and `Cn1c(-c2cn(C3CC3)nc2C(F)(F)F)cnc1C(=O)Nc1ccc(C(=O)N2CCN(C(=O)C3CCNCC3)CC2)c(Cl)c1` [Example 54, N-(3-Chloro-4-(4-(piperidine-4-carbonyl)piperazine-1-carbonyl)phenyl)-5-(1-cyclopropyl-3-(trifluoromethyl)-1H-pyrazol-4-yl)-1-methyl-1H-imidazole-2-carboxamide hydrochloride], with 335 nM. The same measure, in the same setting: the result for `Cn1cc(-c2cnc(C(=O)Nc3ccc(C(=O)N4CCN(C(=O)[C@@H]5C[C@@H](O)CN5)CC4)c(Cl)c3)n2C)c(C(F)(F)F)n1` [Example 55, N-[3-Chloro-4-[4-[(2S,4R)-4-hydroxypyrrolidine-2-carbonyl]piperazine-1-carbonyl]phenyl]-1-methyl-5-[1-methyl-3-(trifluoromethyl)pyrazol-4-yl]imidazole-2-carboxamide] reads 1940 nM; that for `Cn1cc(-c2cnc(C(=O)Nc3ccc(C(=O)N4CCN(C(=O)C5(O)CCNCC5)CC4)c(Cl)c3)n2C)c(C(F)(F)F)n1` [Example 56, N-[3-Chloro-4-[4-(4-hydroxypiperidine-4-carbonyl)piperazine-1-carbonyl]phenyl]-1-methyl-5-[1-methyl-3-(trifluoromethyl)pyrazol-4-yl]imidazole-2-carboxamide 2,2,2-trifluoroacetate], 1510 nM; that for `CCc1cc(NC(=O)c2ncc(-c3cn(C)nc3C(F)(F)F)n2C)ccc1C(=O)NCCOCCN` [Example 57, N-(4-((2-(2-aminoethoxy)ethyl)carbamoyl)-3-ethylphenyl)-1-methyl-5-(1-methyl-3-(trifluoromethyl)-1H-pyrazol-4-yl)-1H-imidazole-2-carboxamide hydrochloride], 4150 nM. The same measure, in the same setting: then `CN(C)CC(=O)N1CCN(S(=O)(=O)c2ccc(NC(=O)c3ncc(-c4c[nH]nc4C(F)(F)F)n3C)cc2Cl)CC1` [Example 58, N-(3-Chloro-4-((4-(dimethylglycyl)piperazin-1-yl)sulfonyl)phenyl)-1-methyl-5-(3-(trifluoromethyl)-1H-pyrazol-4-yl)-1H-imidazole-2-carboxamide], with 952 nM; and `Cn1c(-c2c[nH]nc2C(F)(F)F)cnc1C(=O)Nc1ccc(S(=O)(=O)N2CCN(C(=O)[C@@H]3C[C@@H](O)CN3)CC2)c(Cl)c1` [Example 59, N-(3-Chloro-4-((4-((2S,4R)-4-hydroxypyrrolidine-2-carbonyl)piperazin-1-yl)sulfonyl)phenyl)-1-methyl-5-(3-(trifluoromethyl)-1H-pyrazol-4-yl)-1H-imidazole-2-carboxamide Hydrochloride], with 823 nM. In the case of `Cn1c(-c2cn(CC#N)nc2C(F)(F)F)cnc1C(=O)Nc1ccc(C(=O)N2CCN(C(=O)C3(O)CCNCC3)CC2)c(Cl)c1` [Example 60, N-[3-Chloro-4-[4-(4-hydroxypiperidine-4-carbonyl)piperazine-1-carbonyl]phenyl]-5-[1-(cyanomethyl)-3-(trifluoromethyl)pyrazol-4-yl]-1-methyl-imidazole-2-carboxamide; Formic Acid], the IC90 is 468 nM. Same read-out and setting: then `Cn1c(-c2cn(CC#N)nc2C(F)(F)F)cnc1C(=O)Nc1ccc(C(=O)N2CCN(C(=O)C3CCNCC3)CC2)c(Cl)c1` [Example 61, N-[3-Chloro-4-[4-(piperidine-4-carbonyl)piperazine-1-carbonyl]phenyl]-5-[1-(cyanomethyl)-3-(trifluoromethyl)pyrazol-4-yl]-1-methyl-imidazole-2-carboxamide Formate], with 506 nM; and `C[C@H](N)C(=O)N1CCN(C(=O)c2ccc(NC(=O)c3ncc(-c4cn(Cc5cccnc5)nc4C(F)(F)F)n3C)cc2Cl)CC1` [Example 62, N-[4-[4-[(2S)-2-Aminopropanoyl]piperazine-1-carbonyl]-3-chlorophenyl]-1-methyl-5-[1-(pyridin-3-ylmethyl)-3-(trifluoromethyl)pyrazol-4-yl]imidazole-2-carboxamide trihydrochloride], with 834 nM. Turning to `Cn1c(-c2cn(Cc3cccnc3)nc2C(F)(F)F)cnc1C(=O)Nc1ccc(C(=O)N2CCN(C(=O)[C@H]3C[C@H](N)C3)CC2)c(Cl)c1` [Example 63, rac-N-(4-(4-((1r,3r)-3-aminocyclobutane-1-carbonyl)piperazine-1-carbonyl)-3-chlorophenyl)-1-methyl-5-(1-(pyridin-3-ylmethyl)-3-(trifluoromethyl)-1H-pyrazol-4-yl)-1H-imidazole-2-carboxamide trihydrochloride], the IC90 was found to be 517 nM.

Take `Cn1c(-c2cn(Cc3cccnc3)nc2C(F)(F)F)cnc1C(=O)Nc1ccc(C(=O)N2CCN(C(=O)[C@H]3CC[C@@H](N)C3)CC2)c(Cl)c1` [Example 64, N-(4-(4-((1S,3R)-3-aminocyclopentane-1-carbonyl)piperazine-1-carbonyl)-3-chlorophenyl)-1-methyl-5-(1-(pyridin-3-ylmethyl)-3-(trifluoromethyl)-1H-pyrazol-4-yl)-1H-imidazole-2-carboxamide trihydrochloride]: the IC90 came out at 4660 nM.

Staying with this test, now noted: Acinetobacter baumannii, ATCC17961, read-out: ATCC 17961 IC90, Acinetobacter baumannii ATCC 17961, Iso-Sensitest broth.
In the case of `C=C=Cn1cc(-c2cnc(C(=O)Nc3ccc(C(=O)N4CCN(C(=O)C5CCNCC5)CC4)c(Cl)c3)n2C)c(C(F)(F)F)n1` [Example 65, N-[3-chloro-4-[4-(piperidine-4-carbonyl)piperazine-1-carbonyl]phenyl]-1-methyl-5-[1-propa-1,2-dienyl-3-(trifluoromethyl)pyrazol-4-yl]imidazole-2-carboxamide; Hydrochloride], the IC90 turned out to be 260 nM.
